Experimental data published in ChEMBL document CHEMBL5210121, “Affinity On-target Cellular Literature for EUbOPEN Chemogenomics Library wave 3” (2023).
Blank lines part the entries; values can stand above or below the molecule they belong to.

What was measured:
[1] = Affinity On-target Cellular interaction (Cellular human mast cell degranulation assay) EUB0000714a SYK
[2] = target: Leucine-rich repeat serine/threonine-protein kinase 2 (Homo sapiens, UniProt Q5S007); experiment: Affinity On-target Cellular interaction (NanoBRET assay (HEK293T cells)) EUB0000706a LRRK2
[3] = target: Inhibitor of nuclear factor kappa-B kinase subunit epsilon (Homo sapiens, UniProt Q14164)
[4] = target: Serine/threonine-protein kinase TBK1 (Homo sapiens, UniProt Q9UHD2)
[5] = target: Cystic fibrosis transmembrane conductance regulator (Homo sapiens, UniProt P13569, F508DEL); experiment: Affinity On-target Cellular interaction (CFTR Restoration Trans-Epithelial Current Clamp (TECC) assay (in HBE cells from F508del CF patients)) EUB0000264b CFTR; format: cell-based; design: mode of action Negative control for A-1596586, recommended concentration 1 uM
[6] = target: Histone-lysine N-methyltransferase SETD7 (Homo sapiens, UniProt Q8WTS6); experiment: Affinity On-target Cellular interaction (Immunoblot (increase in nuclear YAP levels by treatment of MEFs (from Setd7+/+ mice) with 10 µM PFI-2)) EUB0000196bCl SETD7; design: mode of action Inhibitor, recommended concentration 1 uM
[7] = target: T1, Mitogen-activated protein kinase 1 (Homo sapiens, UniProt P28482)
T1 sequence (P28482 whole entry): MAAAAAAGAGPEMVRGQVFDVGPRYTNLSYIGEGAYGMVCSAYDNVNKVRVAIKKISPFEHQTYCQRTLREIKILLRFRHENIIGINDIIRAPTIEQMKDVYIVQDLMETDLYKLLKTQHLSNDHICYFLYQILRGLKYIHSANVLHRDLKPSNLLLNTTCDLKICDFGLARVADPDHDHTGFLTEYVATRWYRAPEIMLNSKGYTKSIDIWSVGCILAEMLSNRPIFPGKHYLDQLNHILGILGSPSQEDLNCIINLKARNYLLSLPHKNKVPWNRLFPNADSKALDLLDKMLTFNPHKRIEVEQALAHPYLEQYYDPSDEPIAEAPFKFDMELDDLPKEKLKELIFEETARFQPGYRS

[8] = target: Dual specificity protein kinase CLK1 (Homo sapiens, UniProt P49759); experiment: Affinity On-target Cellular interaction (NanoBRET assay (HEK293T cells)) EUB0000321b CLK1; design: mode of action Inhibitor, recommended concentration 100 nM
Sequence of Dual specificity protein kinase CLK1 (P49759 whole entry): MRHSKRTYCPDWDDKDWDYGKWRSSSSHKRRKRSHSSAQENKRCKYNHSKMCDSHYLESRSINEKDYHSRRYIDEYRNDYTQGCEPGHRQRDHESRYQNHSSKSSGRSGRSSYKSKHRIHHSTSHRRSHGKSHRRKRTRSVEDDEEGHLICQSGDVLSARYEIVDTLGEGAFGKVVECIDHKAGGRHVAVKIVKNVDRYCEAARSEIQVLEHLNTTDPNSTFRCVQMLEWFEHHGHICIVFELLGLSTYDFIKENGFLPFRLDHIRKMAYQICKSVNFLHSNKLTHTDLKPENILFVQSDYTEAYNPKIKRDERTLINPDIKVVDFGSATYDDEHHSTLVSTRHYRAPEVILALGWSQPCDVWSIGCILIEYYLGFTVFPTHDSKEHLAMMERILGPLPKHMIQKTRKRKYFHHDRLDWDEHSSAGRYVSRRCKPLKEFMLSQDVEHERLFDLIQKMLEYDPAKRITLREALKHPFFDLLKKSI

[9] = target: Dual specificity protein kinase CLK4 (Homo sapiens, UniProt Q9HAZ1); experiment: Affinity On-target Cellular interaction (NanoBRET assay (HEK293T cells)) EUB0000321b CLK4; design: mode of action Inhibitor, recommended concentration 100 nM
[10] = target: Bifunctional epoxide hydrolase 2 (Homo sapiens, UniProt P34913); experiment: Affinity On-target Cellular interaction (ELISA (inhibition of sEH in human Hep G2 cells)) EUB0000542a EPHX2; format: cell-based; design: mode of action Inhibitor, recommended concentration 100 nM
[11] = target: Epithelial discoidin domain-containing receptor 1 (Homo sapiens, UniProt Q08345); experiment: Affinity On-target Cellular interaction (NanoBRET assay (HEK293T cells)) EUB0000156b DDR1; design: mode of action Negative control for DDR-TRK-1 (D2202-1), recommended concentration 1 uM
Sequence of Epithelial discoidin domain-containing receptor 1 (Q08345 whole entry, the tested form may be a part): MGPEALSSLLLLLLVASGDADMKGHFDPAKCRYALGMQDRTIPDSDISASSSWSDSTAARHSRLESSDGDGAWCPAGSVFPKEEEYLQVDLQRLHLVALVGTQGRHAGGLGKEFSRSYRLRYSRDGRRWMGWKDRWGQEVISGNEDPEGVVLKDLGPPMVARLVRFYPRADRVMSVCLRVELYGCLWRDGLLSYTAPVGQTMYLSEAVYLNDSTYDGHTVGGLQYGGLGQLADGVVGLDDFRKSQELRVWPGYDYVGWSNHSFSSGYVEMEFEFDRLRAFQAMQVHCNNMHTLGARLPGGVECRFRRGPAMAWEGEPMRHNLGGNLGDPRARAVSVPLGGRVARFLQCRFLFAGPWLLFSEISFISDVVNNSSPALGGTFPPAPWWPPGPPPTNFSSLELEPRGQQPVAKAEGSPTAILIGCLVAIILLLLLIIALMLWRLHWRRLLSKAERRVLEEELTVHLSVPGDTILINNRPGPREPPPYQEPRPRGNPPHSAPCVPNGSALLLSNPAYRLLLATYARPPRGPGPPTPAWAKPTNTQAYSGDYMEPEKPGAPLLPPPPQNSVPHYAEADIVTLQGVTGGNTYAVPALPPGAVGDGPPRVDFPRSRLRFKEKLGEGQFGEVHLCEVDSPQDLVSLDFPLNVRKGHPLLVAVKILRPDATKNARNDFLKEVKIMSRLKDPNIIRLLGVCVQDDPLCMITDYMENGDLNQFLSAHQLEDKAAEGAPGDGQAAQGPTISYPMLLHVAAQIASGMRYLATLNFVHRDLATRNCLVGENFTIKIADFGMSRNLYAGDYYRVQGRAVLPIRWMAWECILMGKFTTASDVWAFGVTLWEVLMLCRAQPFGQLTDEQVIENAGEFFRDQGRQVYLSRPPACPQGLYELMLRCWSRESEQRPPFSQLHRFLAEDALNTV

[12] = target: Discoidin domain-containing receptor 2 (Homo sapiens, UniProt Q16832); experiment: Affinity On-target Cellular interaction (NanoBRET assay (HEK293T cells)) EUB0000156b DDR2; design: mode of action Negative control for DDR-TRK-1 (D2202-1), recommended concentration 1 uM
[13] = target: High affinity nerve growth factor receptor (Homo sapiens, UniProt P04629); experiment: Affinity On-target Cellular interaction (NanoBRET assay (HEK293T cells)) EUB0000156b NTRK1; design: mode of action Negative control for DDR-TRK-1 (D2202-1), recommended concentration 1 uM
Sequence of High affinity nerve growth factor receptor (P04629 whole entry): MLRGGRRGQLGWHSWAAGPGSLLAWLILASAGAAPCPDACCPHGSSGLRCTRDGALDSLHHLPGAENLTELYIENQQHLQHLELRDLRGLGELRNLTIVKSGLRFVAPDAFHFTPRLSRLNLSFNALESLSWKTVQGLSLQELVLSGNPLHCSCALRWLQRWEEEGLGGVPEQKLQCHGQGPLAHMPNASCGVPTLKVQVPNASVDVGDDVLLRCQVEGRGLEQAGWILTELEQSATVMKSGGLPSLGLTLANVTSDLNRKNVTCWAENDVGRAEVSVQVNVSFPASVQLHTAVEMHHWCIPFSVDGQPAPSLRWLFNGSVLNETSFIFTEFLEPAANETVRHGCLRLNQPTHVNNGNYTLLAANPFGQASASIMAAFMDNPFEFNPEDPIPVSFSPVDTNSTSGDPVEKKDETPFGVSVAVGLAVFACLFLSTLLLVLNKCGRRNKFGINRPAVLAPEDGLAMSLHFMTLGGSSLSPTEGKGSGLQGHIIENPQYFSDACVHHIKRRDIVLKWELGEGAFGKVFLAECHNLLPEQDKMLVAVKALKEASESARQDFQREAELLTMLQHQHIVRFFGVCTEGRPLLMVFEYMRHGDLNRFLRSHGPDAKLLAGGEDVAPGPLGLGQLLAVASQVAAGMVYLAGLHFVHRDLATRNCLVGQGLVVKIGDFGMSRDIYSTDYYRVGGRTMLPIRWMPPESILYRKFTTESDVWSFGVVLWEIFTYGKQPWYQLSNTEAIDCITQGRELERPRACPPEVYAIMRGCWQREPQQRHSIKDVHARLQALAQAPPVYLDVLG

[14] = target: BDNF/NT-3 growth factors receptor (Homo sapiens, UniProt Q16620); experiment: Affinity On-target Cellular interaction (NanoBRET assay (HEK293T cells)) EUB0000156b NTRK2; design: mode of action Negative control for DDR-TRK-1 (D2202-1), recommended concentration 1 uM
Sequence of BDNF/NT-3 growth factors receptor (Q16620 whole entry): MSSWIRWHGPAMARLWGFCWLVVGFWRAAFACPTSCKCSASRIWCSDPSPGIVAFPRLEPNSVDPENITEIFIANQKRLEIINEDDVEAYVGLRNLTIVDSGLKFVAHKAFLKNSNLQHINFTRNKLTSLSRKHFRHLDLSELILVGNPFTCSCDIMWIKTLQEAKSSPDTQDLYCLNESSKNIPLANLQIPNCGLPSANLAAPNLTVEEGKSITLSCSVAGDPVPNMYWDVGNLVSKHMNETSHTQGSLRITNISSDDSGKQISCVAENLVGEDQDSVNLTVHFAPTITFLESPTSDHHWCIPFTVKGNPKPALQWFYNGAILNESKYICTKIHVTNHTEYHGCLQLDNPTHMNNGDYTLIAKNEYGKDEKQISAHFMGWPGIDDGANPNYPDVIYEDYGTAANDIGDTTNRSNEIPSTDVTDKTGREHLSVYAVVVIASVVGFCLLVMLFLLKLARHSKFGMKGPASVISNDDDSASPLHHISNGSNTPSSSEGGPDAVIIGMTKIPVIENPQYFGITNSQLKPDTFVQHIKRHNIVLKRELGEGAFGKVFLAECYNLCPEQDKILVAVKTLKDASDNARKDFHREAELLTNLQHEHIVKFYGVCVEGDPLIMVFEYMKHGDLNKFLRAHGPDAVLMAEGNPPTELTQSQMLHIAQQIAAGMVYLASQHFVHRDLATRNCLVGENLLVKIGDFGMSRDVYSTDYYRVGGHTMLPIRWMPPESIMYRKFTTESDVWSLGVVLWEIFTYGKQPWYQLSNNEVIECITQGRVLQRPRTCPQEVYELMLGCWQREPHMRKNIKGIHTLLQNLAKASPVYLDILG

[15] = target: Proteinase-activated receptor 1 (Homo sapiens, UniProt P25116); experiment: Affinity On-target Cellular interaction (Functional cellular assay in HEK cells expressing F2R) EUB0000333a F2R; format: cell-based; design: mode of action Negative control for BAY-386, recommended concentration 100 nM
[16] = target: T1, Mitogen-activated protein kinase 1; experiment: Affinity On-target Cellular interaction (Cellular assay (inhibition of RSK phosphorylation, A375SM cells)) EUB0000700a MAPK1
Activin receptor type-1B = Activin receptor type-1B (Homo sapiens, UniProt P36896); experiment: Affinity On-target Cellular interaction (NanoBRET assay (HEK293T cells)) EUB0000710a ACVR1B
TGF-beta receptor type-1 = TGF-beta receptor type-1 (Homo sapiens, UniProt P36897); experiment: Affinity On-target Cellular interaction (NanoBRET assay (HEK293T cells)) EUB0000710a TGFBR1
[17] = target: Histone acetyltransferase KAT2A (Homo sapiens, UniProt Q92830); experiment: Affinity On-target Cellular interaction (Competing pull-down assay (full-length GCN5 from cell lysates using immobilized L-Moses)) EUB0000218c KAT2A; design: mode of action Inhibitor, recommended concentration 1 uM
[18] = target: Histone acetyltransferase KAT2B (Homo sapiens, UniProt Q92831); experiment: Affinity On-target Cellular interaction (Competing pull-down assay (full-length PCAF from cell lysates using immobilized L-Moses)) EUB0000218c KAT2B; design: mode of action Inhibitor, recommended concentration 1 uM
[19] = target: RAC-alpha serine/threonine-protein kinase (Homo sapiens, UniProt P31749); experiment: Affinity On-target Cellular interaction (NanoBRET assay (HEK293T cells)) EUB0000721a AKT1
[20] = target: RAC-beta serine/threonine-protein kinase (Homo sapiens, UniProt P31751); experiment: Affinity On-target Cellular interaction (NanoBRET assay (HEK293T cells)) EUB0000721a AKT2
[21] = target: RAC-gamma serine/threonine-protein kinase (Homo sapiens, UniProt Q9Y243); experiment: Affinity On-target Cellular interaction (NanoBRET assay (HEK293T cells)) EUB0000721a AKT3
[22] = target: Mas-related G-protein coupled receptor member X2 (Homo sapiens, UniProt Q96LB1); experiment: Affinity On-target Cellular interaction (PRESTO-Tango concentration response assay (by the NIMH-PDSP)) EUB0000345a MRGPRX2; design: mode of action Negative control for (R)-ZINC 3573, recommended concentration 1 uM
Sequence of Mas-related G-protein coupled receptor member X2 (Q96LB1 whole entry): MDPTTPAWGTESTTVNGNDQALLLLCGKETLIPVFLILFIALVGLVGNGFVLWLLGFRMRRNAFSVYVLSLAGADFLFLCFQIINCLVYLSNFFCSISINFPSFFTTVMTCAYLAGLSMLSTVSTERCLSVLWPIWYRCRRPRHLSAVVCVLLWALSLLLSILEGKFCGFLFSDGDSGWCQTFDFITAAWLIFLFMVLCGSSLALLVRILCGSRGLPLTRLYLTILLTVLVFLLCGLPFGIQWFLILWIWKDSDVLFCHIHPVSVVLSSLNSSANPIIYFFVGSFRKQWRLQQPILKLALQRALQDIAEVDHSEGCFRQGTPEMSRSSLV

D(4) dopamine receptor = D(4) dopamine receptor (Homo sapiens, UniProt P21917); experiment: Affinity On-target Cellular interaction (Fluorometric Imaging Plate Reader (FLIPR) Assay (agonist activity at human D4.4 receptor in HEK293 cells coexpressing G-alpha-qo5)) EUB0000332a DRD4; format: cell-based; design: mode of action Negative control for ABT-724, recommended concentration 100 nM
[23] = target: Transient receptor potential cation channel subfamily A member 1 (Homo sapiens, UniProt O75762); experiment: Affinity On-target Cellular interaction (Electrophysiological assay (inhibition of AITC (allylthiocyanate, 100 µmol/L)-evoked currents in HEK293F cells transiently overexpressing hTRPA1)) EUB0000308b TRPA1; format: cell-based; design: mode of action Antagonist, recommended concentration 1 uM
Sequence of Transient receptor potential cation channel subfamily A member 1 (O75762 whole entry): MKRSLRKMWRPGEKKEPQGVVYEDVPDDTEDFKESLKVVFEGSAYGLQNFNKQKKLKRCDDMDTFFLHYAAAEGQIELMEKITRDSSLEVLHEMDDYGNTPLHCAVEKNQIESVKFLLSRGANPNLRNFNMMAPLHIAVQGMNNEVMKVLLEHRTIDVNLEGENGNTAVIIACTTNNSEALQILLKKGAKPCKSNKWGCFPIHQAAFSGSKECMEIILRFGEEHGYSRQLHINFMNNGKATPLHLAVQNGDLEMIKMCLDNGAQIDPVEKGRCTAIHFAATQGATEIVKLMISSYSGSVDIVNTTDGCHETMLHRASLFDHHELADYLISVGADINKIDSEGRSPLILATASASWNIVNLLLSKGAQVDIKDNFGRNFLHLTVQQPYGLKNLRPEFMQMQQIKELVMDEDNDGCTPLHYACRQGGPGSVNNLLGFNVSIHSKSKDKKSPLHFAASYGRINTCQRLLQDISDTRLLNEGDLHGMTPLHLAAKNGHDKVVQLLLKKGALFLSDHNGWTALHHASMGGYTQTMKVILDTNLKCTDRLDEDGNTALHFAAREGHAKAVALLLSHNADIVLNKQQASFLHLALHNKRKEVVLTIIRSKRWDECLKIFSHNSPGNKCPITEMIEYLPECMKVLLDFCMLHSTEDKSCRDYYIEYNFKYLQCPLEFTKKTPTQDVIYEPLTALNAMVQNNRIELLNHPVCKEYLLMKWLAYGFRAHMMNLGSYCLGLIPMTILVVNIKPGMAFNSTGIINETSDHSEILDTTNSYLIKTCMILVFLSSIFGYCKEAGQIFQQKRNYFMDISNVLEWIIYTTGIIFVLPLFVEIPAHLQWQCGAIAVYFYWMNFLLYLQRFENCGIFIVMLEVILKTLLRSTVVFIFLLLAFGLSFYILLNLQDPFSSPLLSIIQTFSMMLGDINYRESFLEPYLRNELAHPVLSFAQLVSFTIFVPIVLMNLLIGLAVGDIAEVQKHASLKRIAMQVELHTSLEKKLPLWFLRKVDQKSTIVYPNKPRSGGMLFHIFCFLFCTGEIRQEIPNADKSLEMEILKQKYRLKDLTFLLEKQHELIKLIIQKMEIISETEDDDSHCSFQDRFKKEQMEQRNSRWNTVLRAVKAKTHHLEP

IC50 [1]: 0.038 µM
SMILES: Cc1cc(Nc2nccc(C)n2)cc(-c2cnc([C@@]3(O)CC[C@H](C(=O)O)C(C)(C)C3)s2)c1 [MRL-SYKi]

IC50 [3]: > 27 µM
IC50 [4]: > 27 µM
SMILES: CN(C)c1ncnc(-c2ccc3nc(Nc4cc(CN5CCN(C(=O)CC(F)(F)F)CC5)ccn4)[nH]c3c2)c1Cl [BAY-440]

EC50 [6]: < 10 µM
SMILES: O=C([C@@H](Cc1cccc(C(F)(F)F)c1)NS(=O)(=O)c1cc(F)c2c(c1)CCNC2)N1CCCC1

IC50 [8]: 0.004 µM
IC50 [9]: > 0.002 µM
SMILES: CN1CCN(C(=O)C(C)(C)c2ccc(C(=O)Nc3cn4cc(-c5ccncc5)ccc4n3)cc2)CC1 [T3-CLK]

IC50 [10]: < 0.001 µM
SMILES: CCOCCn1cc(C(=O)Nc2ccc(-n3nc(-c4cccnc4)cc3C(F)(F)F)cn2)ccc1=O [BI 1935]

IC50 [11]: 26.6 µM
IC50 [12]: 8.72 µM
IC50 [13]: 19.3 µM
IC50 [14]: 6.8 µM
SMILES: CN1CCN(Cc2cc(NC(=O)c3ccc4c(c3)CN(c3ccccc3)CC4)cc(C(F)(F)F)c2)CC1

IC50 [19]: 1.9 µM
IC50 [20]: 8.3 µM
IC50 [21]: 18 µM
SMILES: C=CC(=O)Nc1ccc2[nH]c(=O)n(C3CCN(C(=O)c4ccc(-c5nc6cc[nH]c(=O)c6cc5-c5ccccc5)cc4)CC3)c2c1

EC50 [22]: > 100 µM
SMILES: CN(C)[C@H]1CCN(c2cc(-c3ccccc3)nc3ccnn23)C1 [(S)-ZINC-3573]

EC50 (D(4) dopamine receptor): > 10 µM
SMILES: CSc1cccnc1N1CCN(Cc2nc3ccccc3[nH]2)CC1 [A-769]

Continued, molecule first:

SMILES: C[C@@H]1CN(c2cc(-c3nn(C)c4ccc(OC5(C)CC5)cc34)ncn2)C[C@H](C)O1 [MLi-2-NC]
EC50 [2]: 0.421 µM

SMILES: COc1ccc2c(c1)O[C@H](c1ccc(OC)c(OC)c1)C[C@@H]2NC(=O)C1(c2ccc3c(c2)OC(F)(F)O3)CC1 [A-1596584]
EC50 [5]: > 3 µM

SMILES: C[C@@H](NC(=O)Nc1cc2[nH]ncc2c(CO)n1)c1ccccc1 [ERKi]
IC50 [7]: 0.85 µM

SMILES: Cc1noc([C@H]2C[C@@H](c3ccc(C(F)(F)F)cc3)CN(C(=O)N3CCS(=O)(=O)C3)C2)n1 [BAY-448]
IC50 [15]: > 10 µM

SMILES: C[C@H](NC(=O)Nc1cc2[nH]ncc2c(CO)n1)c1ccccn1 [ERKi-NC]
IC50 [16]: > 10 µM

SMILES: Cc1cnc(-c2cc(Cl)ccc2F)cc1-n1c(=O)n(CC(N)=O)c2ccccc21 [Al11]
IC50 (Activin receptor type-1B): > 10 µM
IC50 (TGF-beta receptor type-1): > 10 µM

SMILES: Cc1nnc2c3ccccc3c(N[C@@H](C)[C@H](c3ccccc3)N(C)C)nn12
IC50 [17]: 0.22 µM
IC50 [18]: 0.66 µM

SMILES: Clc1cccc(-c2nnnn2Cc2cccnc2)c1Cl
IC50 [23]: 0.051 µM
